Data: US6753345B2, “7-hexanolytaxol and methods for preparing the same” (Hauser, Inc., priority 1998, dated 2004)

Legend:
SN12C = assay: SRB cytotoxicity screening assay (Renal Cancer)
HL-60(TB) = assay: cells; conditions: Homo sapiens, HL-60, 48 h
HCT-116 = assay: SRB cytotoxicity screening assay (Colon Cancer)
KM12 = assay: SRB cytotoxicity screening assay (Colon Cancer)
LOX-IMVI [1] = conditions: LOX-IMVI (Melanoma); PG=0; 48 hour incubation
A498 = assay: SRB cytotoxicity screening assay (Renal Cancer)
EKVX = assay: SRB cytotoxicity screening assay (Non-Small Cell Lung Cancer)
SR = assay: SRB cytotoxicity screening assay (Leukemia); conditions: Homo sapiens, SR, 48 h
TK-10 = assay: SRB cytotoxicity screening assay (Renal Cancer)
LOX-IMVI [2] = assay: cells; conditions: Homo sapiens, 48 h, read-out: Log10 LC50 (converted)
OVCAR-6 = assay: SRB cytotoxicity screening assay (Ovarian)
NCI-H322M = NCI-H322M (Non-Small Cell Lung Cancer); PG=0; 48 hour incubation
COLO 205 = assay: SRB cytotoxicity screening assay (Colon Cancer)
[3] = system: cell line panel (60 lines, nine disease-related subpanels); assay: SRB cytotoxicity screening assay, whole cell line panel (mean values)
UACC-62 = assay: SRB cytotoxicity screening assay (Melanoma)
SK-MEL-2 = assay: SRB cytotoxicity screening assay (Melanoma)
MOLT-4 = assay: SRB cytotoxicity screening assay (Leukemia)
NCI-H522 = assay: SRB cytotoxicity screening assay (Non-Small Cell Lung Cancer)
HT29 = assay: SRB cytotoxicity screening assay (Colon Cancer)
RPMI-8226 = assay: SRB cytotoxicity screening assay (Leukemia); conditions: Homo sapiens, RPMI-8226, 48 h
UO-31 = assay: SRB cytotoxicity screening assay (Renal Cancer)
OVCAR-4 = assay: SRB cytotoxicity screening assay (Ovarian)
DU-145 = assay: SRB cytotoxicity screening assay (Prostate Cancer)
CCRF-CEM cells = assay: G2/M arrest; type: cell-based; conditions: minimum concentration that results in 60% of CCRF-CEM cells to arrest in G2-M
MCF7/ADR-RES = assay: SRB cytotoxicity screening assay (Breast Cancer)
MDA-MB-231/ATCC = assay: SRB cytotoxicity screening assay (Breast Cancer)
[4] = read-out: Log10 GI50 (converted)
[5] = read-out: Log10 LC50 (converted)
[6] = mean value over the cell line panel

Question: `CCCCCC(=O)O[C@H]1C[C@H]2OC[C@@]2(OC(C)=O)[C@H]2[C@H](OC(=O)c3ccccc3)[C@]3(O)C[C@H](OC(=O)[C@H](O)[C@@H](NC(=O)c4ccccc4)c4ccccc4)C(C)=C([C@@H](OC(C)=O)C(=O)[C@]12C)C3(C)C` [7-hexanoyltaxol] was tested. Which GI50 (SN12C; Homo sapiens, SN12C, 48 h, read-out: Log10 GI50 (converted)) did it give?
Answer: The GI50 was less than 0.01 µM.

Question: And the CC50 (SN12C; Homo sapiens, SN12C, 48 h, read-out: Log10 LC50 (converted))?
Answer: Its CC50 is greater than 100 µM.

Question: What about the “Log10 TGI” value (SN12C; SN12C (Renal Cancer), PG=0, 48 hour incubation) of the same compound?
Answer: The value was greater than −4.00 molar.

Question: And the GI50 (HL-60(TB); [4])?
Answer: Its GI50 is less than 0.01 µM.

Question: And the CC50 (HL-60(TB); [5])?
Answer: The CC50 was greater than 100 µM.

Question: What about the “Log10 TGI” value (HCT-116; HCT-116 (Colon Cancer), PG=0, 48 hour incubation) of the same compound?
Answer: Its value is −4.94 molar.

Question: And the GI50 (HCT-116; Homo sapiens, HCT-116, 48 h, read-out: Log10 GI50 (converted))?
Answer: The GI50 was less than 0.01 µM.

Question: And the CC50 (HCT-116; Homo sapiens, HCT-116, 48 h, read-out: Log10 LC50 (converted))?
Answer: The CC50 was greater than 100 µM.

Question: And the GI50 (KM12; Homo sapiens, KM12, 48 h, read-out: Log10 GI50 (converted))?
Answer: Its GI50 is less than 0.01 µM.

Question: And the CC50 (KM12; Homo sapiens, KM12, 48 h, read-out: Log10 LC50 (converted))?
Answer: Its CC50 is greater than 100 µM.

Question: What about the “Log10 TGI” value (KM12; KM12 (Colon Cancer), PG=0, 48 hour incubation) of the same compound?
Answer: The value was −4.90 molar.

Question: And the “Log10 TGI” value (LOX-IMVI [1])?
Answer: Its value is −4.68 molar.

Question: And the “Log10 TGI” value (A498; A498 (Renal Cancer), PG=0, 48 hour incubation)?
Answer: Its value is −7.29 molar.

Question: And the GI50 (A498; Homo sapiens, A498, 48 h, read-out: Log10 GI50 (converted))?
Answer: Its GI50 is less than 0.01 µM.

Question: And the CC50 (A498; Homo sapiens, A498, 48 h, read-out: Log10 LC50 (converted))?
Answer: Its CC50 is greater than 100 µM.

Question: What about the “Log10 TGI” value (EKVX; EKVX (Non-Small Cell Lung Cancer), PG=0, 48 hour incubation) of the same compound?
Answer: Its value is −4.29 molar.

Question: What about the GI50 (EKVX; Homo sapiens, EKVX, 48 h, read-out: Log10 GI50 (converted)) of the same compound?
Answer: Its GI50 is 0.398 µM.

Question: What about the CC50 (EKVX; Homo sapiens, EKVX, 48 h, read-out: Log10 LC50 (converted)) of the same compound?
Answer: The CC50 was greater than 100 µM.

Question: What about the GI50 (SR; [4]) of the same compound?
Answer: The GI50 was less than 0.01 µM.

Question: And the CC50 (SR; [5])?
Answer: The CC50 was greater than 100 µM.

Question: And the GI50 (TK-10; Homo sapiens, TK-10, 48 h, read-out: Log10 GI50 (converted))?
Answer: Its GI50 is 0.0324 µM.

Question: What about the CC50 (TK-10; Homo sapiens, TK-10, 48 h, read-out: Log10 LC50 (converted)) of the same compound?
Answer: Its CC50 is greater than 100 µM.

Question: And the “Log10 TGI” value (TK-10; TK-10 (Renal Cancer), PG=0, 48 hour incubation)?
Answer: The value was −4.45 molar.

Question: What about the CC50 (LOX-IMVI [2]) of the same compound?
Answer: Its CC50 is 57.5 µM.

Question: And the GI50 (OVCAR-6; 48 h, read-out: Log10 GI50 (converted))?
Answer: Its GI50 is less than 0.01 µM.

Question: And the CC50 (OVCAR-6; 48 h, read-out: Log10 LC50 (converted))?
Answer: Its CC50 is 85.1 µM.

Question: And the “Log10 TGI” value (OVCAR-6; OVCAR-6 (Ovarian), PG=0, 48 hour incubation)?
Answer: The value was −4.88 molar.

Question: What about the “Log10 TGI” value (NCI-H322M) of the same compound?
Answer: The value was −4.51 molar.

Question: And the “Log10 TGI” value (COLO 205; COLO 205 (Colon Cancer), PG=0, 48 hour incubation)?
Answer: Its value is −7.38 molar.

Question: And the GI50 (COLO 205; Homo sapiens, COLO 205, 48 h, read-out: Log10 GI50 (converted))?
Answer: The GI50 was less than 0.01 µM.

Question: What about the CC50 (COLO 205; Homo sapiens, COLO 205, 48 h, read-out: Log10 LC50 (converted)) of the same compound?
Answer: The CC50 was 26.3 µM.

Question: And the “potency compared with paclitaxel” value ([3]; cancer cell line panel, Table I)?
Answer: Its value is “in most instances is as potent and in some instances more potent than paclitaxel”.

Question: And the “Log10 GI50, MG_MID” value [3, 6]?
Answer: The value was −7.79 molar.

Question: What about the “Log10 LC50, MG_MID” value [3, 6] of the same compound?
Answer: Its value is −4.32 molar.

Question: What about the “Log10 TGI, MG_MID” value [3, 6] of the same compound?
Answer: The value was −5.59 molar.

Question: And the GI50 (UACC-62; Homo sapiens, UACC-62, 48 h, read-out: Log10 GI50 (converted))?
Answer: Its GI50 is less than 0.01 µM.

Question: What about the CC50 (UACC-62; Homo sapiens, UACC-62, 48 h, read-out: Log10 LC50 (converted)) of the same compound?
Answer: The CC50 was greater than 100 µM.

Question: And the “Log10 TGI” value (UACC-62; UACC-62 (Melanoma), PG=0, 48 hour incubation)?
Answer: Its value is −4.78 molar.

Question: What about the GI50 (SK-MEL-2; Homo sapiens, SK-MEL-2, 48 h, read-out: Log10 GI50 (converted)) of the same compound?
Answer: Its GI50 is 0.0933 µM.

Question: What about the CC50 (SK-MEL-2; Homo sapiens, SK-MEL-2, 48 h, read-out: Log10 LC50 (converted)) of the same compound?
Answer: Its CC50 is greater than 100 µM.

Question: What about the “Log10 TGI” value (SK-MEL-2; SK-MEL-2 (Melanoma), PG=0, 48 hour incubation) of the same compound?
Answer: The value was −4.56 molar.

Question: What about the GI50 (MOLT-4; Homo sapiens, MOLT-4, 48 h, read-out: Log10 GI50 (converted)) of the same compound?
Answer: The GI50 was less than 0.01 µM.

Question: What about the CC50 (MOLT-4; Homo sapiens, MOLT-4, 48 h, read-out: Log10 LC50 (converted)) of the same compound?
Answer: The CC50 was greater than 100 µM.

Question: And the “Log10 TGI” value (MOLT-4; MOLT-4 (Leukemia), PG=0, 48 hour incubation)?
Answer: The value was −4.69 molar.

Question: And the GI50 (NCI-H522; Homo sapiens, NCI-H522, 48 h, read-out: Log10 GI50 (converted))?
Answer: The GI50 was less than 0.01 µM.

Question: And the CC50 (NCI-H522; Homo sapiens, NCI-H522, 48 h, read-out: Log10 LC50 (converted))?
Answer: Its CC50 is greater than 100 µM.

Question: And the “Log10 TGI” value (NCI-H522; NCI-H522 (Non-Small Cell Lung Cancer), PG=0, 48 hour incubation)?
Answer: Its value is −5.91 molar.

Question: And the “Log10 TGI” value (HT29; HT29 (Colon Cancer), PG=0, 48 hour incubation)?
Answer: Its value is −4.95 molar.

Question: And the GI50 (HT29; Homo sapiens, HT-29, 48 h, read-out: Log10 GI50 (converted))?
Answer: Its GI50 is less than 0.01 µM.

Question: And the CC50 (HT29; Homo sapiens, HT-29, 48 h, read-out: Log10 LC50 (converted))?
Answer: The CC50 was 33.1 µM.

Question: What about the GI50 (RPMI-8226; [4]) of the same compound?
Answer: Its GI50 is less than 0.01 µM.

Question: And the CC50 (RPMI-8226; [5])?
Answer: Its CC50 is greater than 100 µM.

Question: And the GI50 (UO-31; Homo sapiens, UO-31, 48 h, read-out: Log10 GI50 (converted))?
Answer: Its GI50 is 0.0646 µM.

Question: And the CC50 (UO-31; Homo sapiens, UO-31, 48 h, read-out: Log10 LC50 (converted))?
Answer: The CC50 was greater than 100 µM.

Question: What about the “Log10 TGI” value (UO-31; UO-31 (Renal Cancer), PG=0, 48 hour incubation) of the same compound?
Answer: The value was greater than −4.00 molar.

Question: And the GI50 (OVCAR-4; Homo sapiens, OVCAR-4, 48 h, read-out: Log10 GI50 (converted))?
Answer: Its GI50 is 1.58 µM.

Question: And the CC50 (OVCAR-4; Homo sapiens, OVCAR-4, 48 h, read-out: Log10 LC50 (converted))?
Answer: The CC50 was greater than 100 µM.

Question: And the “Log10 TGI” value (OVCAR-4; OVCAR-4 (Ovarian), PG=0, 48 hour incubation)?
Answer: The value was −4.21 molar.

Question: And the “Log10 TGI” value (DU-145; DU-145 (Prostate Cancer), PG=0, 48 hour incubation)?
Answer: The value was −7.00 molar.

Question: And the GI50 (DU-145; Homo sapiens, DU-145, 48 h, read-out: Log10 GI50 (converted))?
Answer: Its GI50 is less than 0.01 µM.

Question: And the CC50 (DU-145; Homo sapiens, DU-145, 48 h, read-out: Log10 LC50 (converted))?
Answer: The CC50 was 37.2 µM.

Question: What about the “G2/M arrest MED” value (CCRF-CEM cells) of the same compound?
Answer: Its value is 0.10 µg/mL.

Question: What about the GI50 (MCF7/ADR-RES; Homo sapiens, MCF7, 48 h, read-out: Log10 GI50 (converted)) of the same compound?
Answer: The GI50 was 1.12 µM.

Question: And the CC50 (MCF7/ADR-RES; Homo sapiens, MCF7, 48 h, read-out: Log10 LC50 (converted))?
Answer: Its CC50 is greater than 100 µM.

Question: What about the “Log10 TGI” value (MCF7/ADR-RES; MCF7/ADR-RES (Breast Cancer), PG=0, 48 hour incubation) of the same compound?
Answer: Its value is −4.80 molar.

Question: And the GI50 (MDA-MB-231/ATCC; Homo sapiens, MDA-MB-231, 48 h, read-out: Log10 GI50 (converted))?
Answer: The GI50 was 0.0282 µM.

Question: And the CC50 (MDA-MB-231/ATCC; Homo sapiens, MDA-MB-231, 48 h, read-out: Log10 LC50 (converted))?
Answer: Its CC50 is 23.4 µM.

Question: And the “Log10 TGI” value (MDA-MB-231/ATCC; MDA-MB-231/ATCC (Breast Cancer), PG=0, 48 hour incubation)?
Answer: The value was −6.13 molar.
